Experiment [1] has as its target acetylcholinesterase (AChE) (Homo sapiens, UniProt P22303). Description: biochemical.
Experiment [2] addresses butyrylcholinesterase (BuChE) (Homo sapiens, UniProt P06276). Description: In vitro butyrylcholinesterase inhibitory activity. Format: biochemical.

acetylcholinesterase (AChE), sequence (P22303 32-614, species assumed): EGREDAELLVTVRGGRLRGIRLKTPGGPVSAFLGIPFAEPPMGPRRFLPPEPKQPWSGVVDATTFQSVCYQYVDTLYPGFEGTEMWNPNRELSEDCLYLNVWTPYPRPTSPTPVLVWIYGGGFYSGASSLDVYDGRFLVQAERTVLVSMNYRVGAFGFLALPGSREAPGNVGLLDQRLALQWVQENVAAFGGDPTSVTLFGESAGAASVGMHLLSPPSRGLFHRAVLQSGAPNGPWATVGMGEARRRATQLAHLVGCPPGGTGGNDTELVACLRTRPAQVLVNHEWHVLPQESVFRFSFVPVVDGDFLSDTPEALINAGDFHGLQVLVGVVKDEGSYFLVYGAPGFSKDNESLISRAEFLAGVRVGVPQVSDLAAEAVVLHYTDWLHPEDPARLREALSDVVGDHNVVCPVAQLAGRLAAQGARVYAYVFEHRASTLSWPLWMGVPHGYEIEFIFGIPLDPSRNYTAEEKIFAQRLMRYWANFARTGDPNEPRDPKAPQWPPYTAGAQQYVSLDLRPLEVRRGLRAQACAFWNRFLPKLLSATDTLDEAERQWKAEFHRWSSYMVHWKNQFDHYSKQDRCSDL
butyrylcholinesterase (BuChE), sequence (P06276 29-602): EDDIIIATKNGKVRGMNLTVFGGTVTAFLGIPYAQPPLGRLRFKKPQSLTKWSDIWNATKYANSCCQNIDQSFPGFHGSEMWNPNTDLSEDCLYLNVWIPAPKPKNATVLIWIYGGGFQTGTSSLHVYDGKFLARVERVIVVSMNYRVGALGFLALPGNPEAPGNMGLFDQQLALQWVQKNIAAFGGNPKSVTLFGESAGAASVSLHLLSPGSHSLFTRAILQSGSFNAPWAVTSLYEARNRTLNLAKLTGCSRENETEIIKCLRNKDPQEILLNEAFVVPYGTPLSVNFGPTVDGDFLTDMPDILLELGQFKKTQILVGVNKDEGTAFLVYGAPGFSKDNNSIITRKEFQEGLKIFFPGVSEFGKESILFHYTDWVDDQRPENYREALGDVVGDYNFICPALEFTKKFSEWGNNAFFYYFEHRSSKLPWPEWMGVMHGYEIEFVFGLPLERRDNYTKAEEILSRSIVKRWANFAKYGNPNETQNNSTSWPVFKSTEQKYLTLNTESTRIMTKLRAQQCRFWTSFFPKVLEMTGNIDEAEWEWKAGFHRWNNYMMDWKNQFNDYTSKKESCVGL

A word on the IC50: it is the concentration at which inhibition is half-maximal. `CC(=NN=Cc1cccc2ccccc12)c1ccc(OCc2ccc(Br)cc2)cc1` [Compound 2h, 1-(1-(4-((4-Bromobenzyl)oxy)phenyl)ethylidene)-2-(naphthalen-1-ylmethylene)hydrazine]: the IC50 in experiment [1] came to 128.2 ± 0.98 µM; in experiment [2], 166.3 ± 1.2 µM.

On to `CC(=NN=Cc1ccc(Br)cc1F)c1ccc(OCc2ccc(Br)cc2)cc1` [Compound 2c, 1-(4-Bromo-2-fluorobenzylidene)-2-(1-(4-((4-bromobenzyl)oxy)phenyl)ethylidene)hydrazine], for which the IC50 in experiment [1] came to 150 ± 2.26 µM; in experiment [2], 175 ± 2.96 µM.

For `COc1cccc(C=NN=C(C)c2ccc(OCc3ccc(Br)cc3)cc2)c1O` [Compound 2b, 2-(((1-(4-((4-Bromobenzyl)oxy)phenyl)ethylidene)hydrazono)methyl)-6-methoxyphenol], the values for the IC50 in experiment [1] and in experiment [2] were 18.6 ± 0.21 µM and 35.31 ± 0.01 µM, respectively.

As for `CC(=NN=Cc1ccc(C)cc1)c1ccc(OCc2ccc(Br)cc2)cc1` [Compound 2g, 1-(1-(4-((4-Bromobenzyl)oxy)phenyl)ethylidene)-2-(4-methylbenzylidene)hydrazine], the IC50 in experiment [1] amounted to 62.28 ± 0.42 µM; in experiment [2] it was 98.7 ± 1.18 µM.

For the molecule `CC(=NN=Cc1ccc(Cl)cc1)c1ccc(OCc2ccc(Br)cc2)cc1` [Compound 2d, 1-(1-(4-((4-Bromobenzyl)oxy)phenyl)ethylidene)-2-(4-chlorobenzylidene)hydrazine], the IC50 in experiment [1] was 139 ± 2.33 µM; in experiment [2], 161.8 ± 0.07 µM.

`CC(=NN=Cc1ccc(C)o1)c1ccc(OCc2ccc(Br)cc2)cc1` [Compound 2e, 1-(1-(4-((4-Bromobenzyl)oxy)phenyl)ethylidene)-2-((5-methylfuran-2-yl)methylene) hydrazine]: the IC50 in experiment [1] turned out to be 98.21 ± 0.01 µM; in experiment [2], 136 ± 2.61 µM.

For `CCN(CC)c1ccc(C=NN=C(C)c2ccc(OCc3ccc(Br)cc3)cc2)cc1` [Compound 2a, 4-(((1-(4-((4-bromobenzyl)oxy)phenyl)ethylidene)hydrazineylidene)methyl)-N,N-diethylaniline], the IC50 in experiment [1] came out at 44.36 ± 0.33 µM; in experiment [2] it was 77.9 ± 1.46 µM.

On to `COc1ccc(C=NN=C(C)c2ccc(OCc3ccc(Br)cc3)cc2)cc1` [Compound 2f, 1-(1-(4-((4-Bromobenzyl)oxy)phenyl)ethylidene)-2-(4-methoxybenzylidene)hydrazine], for which the IC50 in experiment [1] was determined as 48.37 ± 0.06 µM; in experiment [2], 76.3 ± 1.17 µM.

For `CC(=NN=Cc1ccc(C=O)cc1)c1ccc(OCc2ccc(Br)cc2)cc1` [Compound 2i, 4-(((1-(4-((4-Bromobenzyl)oxy)phenyl)ethylidene)hydrazono)methyl)benzaldehyde], the IC50 came to 141.8 ± 0.77 µM in experiment [1] and 177 ± 3.53 µM in experiment [2].
